Assay results published in the CheMixHub viscosity set.

Assay: xn = mol fraction of the nth substance listed

CCOC(=O)c1ccccc1 + CCCCCCC
viscosity [mPa·s]
Settings	298.15 K	303.15 K	308.15 K	313.15 K	318.15 K
101 kPa, x1 = 0.1042	–	0.417	0.397	0.37	–
101 kPa, x1 = 0.2052	–	0.475	0.447	0.42	–
101 kPa, x1 = 0.3085	–	0.55	0.514	0.482	–
101 kPa, x1 = 0.4071	–	0.63	0.591	0.55	–
101 kPa, x1 = 0.5078	–	0.738	0.687	0.64	–
101 kPa, x1 = 0.6071	–	0.865	0.802	0.745	–
101 kPa, x1 = 0.7074	–	1.03	0.95	0.875	–
101 kPa, x1 = 0.8047	–	1.217	1.12	1.03	–
101 kPa, x1 = 0.9038	–	1.466	1.34	1.23	–
101.3 kPa, x1 = 0.098	0.428	–	0.387	–	0.351
101.3 kPa, x1 = 0.1952	0.484	–	0.433	–	0.393
101.3 kPa, x1 = 0.2948	0.55	–	0.492	–	0.44
101.3 kPa, x1 = 0.3941	0.638	–	0.564	–	0.498
101.3 kPa, x1 = 0.4961	0.747	–	0.655	–	0.571
101.3 kPa, x1 = 0.5985	0.882	–	0.767	–	0.662
101.3 kPa, x1 = 0.6974	1.047	–	0.912	–	0.771
101.3 kPa, x1 = 0.7984	1.263	–	1.082	–	0.913
101.3 kPa, x1 = 0.8972	1.539	–	1.286	–	1.08

CCCNCCC + CCCO
viscosity [mPa·s], 101.33 kPa
Settings	x1 = 0.1059	x1 = 0.2109	x1 = 0.3116	x1 = 0.401	x1 = 0.513	x1 = 0.5913	x1 = 0.7036	x1 = 0.8073	x1 = 0.885
303.15 K	1.601	1.425	1.268	1.138	0.994	0.8936	0.7675	0.6649	0.5972
313.15 K	1.261	1.126	1.009	0.8968	0.7829	0.7121	0.6195	0.5442	0.4899

C1=CCCCC1 + CCCCCC
303.15 K, 101 kPa
Settings	viscosity [mPa·s]
x1 = 0.1718	0.348
x1 = 0.2792	0.365
x1 = 0.3914	0.387
x1 = 0.5249	0.418
x1 = 0.5946	0.438
x1 = 0.6859	0.464
x1 = 0.8067	0.503
x1 = 0.9032	0.536

CCCCCl + CC(C)(C)O
viscosity [mPa·s], 101 kPa
Settings	x1 = 0.1052	x1 = 0.2087	x1 = 0.315	x1 = 0.4159	x1 = 0.5172	x1 = 0.6059	x1 = 0.7101	x1 = 0.8039	x1 = 0.8976
298.15 K	2.188	1.359	0.991	0.7867	0.6596	0.582	–	0.4746	0.4434
313.15 K	1.279	0.9194	0.7181	0.5981	0.5189	–	0.4243	0.3963	0.377

CC1CCCCC1 + CCCCO
303.15 K, 101.33 kPa
Settings	viscosity [mPa·s]
x1 = 0.1	1.825
x1 = 0.2604	1.383
x1 = 0.42	1.072
x1 = 0.5788	0.854
x1 = 0.7414	0.719
x1 = 0.9013	0.643
x2 = 0.0995	0.6691
x2 = 0.2019	0.7305
x2 = 0.3088	0.8105
x2 = 0.3988	0.89
x2 = 0.5011	0.9898
x2 = 0.5989	1.122
x2 = 0.6911	1.272
x2 = 0.7839	1.45
x2 = 0.9179	1.858

CCn1cc[n+](C)c1.N#C[S-] + CCOS(=O)(=O)[O-].CC[n+]1ccn(C)c1
100 kPa
Settings	viscosity [mPa·s]
298.15 K, x2 = 0.0495	24.95
323.15 K, x2 = 0.571	25.65

Cc1ccccc1[N+](=O)[O-] + Cc1ccccc1C
308.15 K, 101.33 kPa
Settings	viscosity [mPa·s]
x2 = 0.1023	1.548
x2 = 0.2014	1.392
x2 = 0.3006	1.262
x2 = 0.4018	1.143
x2 = 0.5041	1.027
x2 = 0.6102	0.928
x2 = 0.7028	0.85
x2 = 0.8056	0.773
x2 = 0.9008	0.709

CCOC(=O)c1ccccc1 + C1CCCCC1
viscosity [mPa·s], 101 kPa
Settings	x1 = 0.0779	x1 = 0.1586	x1 = 0.2454	x1 = 0.3327	x1 = 0.4305	x1 = 0.5312	x1 = 0.6374	x1 = 0.751	x1 = 0.868
303.15 K	0.82	0.832	0.88	0.937	1.025	1.123	1.248	1.387	1.552
308.15 K	0.78	0.801	0.84	0.89	0.96	1.047	1.157	1.295	1.439
313.15 K	0.708	0.727	0.772	0.819	0.885	0.967	1.069	1.198	1.33

CCCC[N+]1(C)CCCC1.N#C[S-] + O
Settings	viscosity [mPa·s]
298.15 K, 101 kPa, x1 = 0.9147	91.83

CC1CCCCC1 + CCCCCCCO
Settings	viscosity [mPa·s]
298.15 K, 101 kPa, x1 = 0.111	4.608
298.15 K, 101 kPa, x1 = 0.2237	3.546
298.15 K, 101 kPa, x1 = 0.389	2.371
298.15 K, 101 kPa, x1 = 0.6878	1.192
298.15 K, 101 kPa, x1 = 0.8281	0.89
298.15 K, 101 kPa, x1 = 0.9181	0.757
303.15 K, 101.33 kPa, x2 = 0.1208	0.7838
303.15 K, 101.33 kPa, x2 = 0.211	0.9181
303.15 K, 101.33 kPa, x2 = 0.3517	1.174
303.15 K, 101.33 kPa, x2 = 0.4355	1.364
303.15 K, 101.33 kPa, x2 = 0.5214	1.599
303.15 K, 101.33 kPa, x2 = 0.608	1.899
303.15 K, 101.33 kPa, x2 = 0.718	2.394
303.15 K, 101.33 kPa, x2 = 0.7991	2.87
303.15 K, 101.33 kPa, x2 = 0.8894	3.56

CCOC(C)(C)C + CCCCOCCO
viscosity [mPa·s], 101 kPa
Settings	293.15 K	298.15 K	303.15 K
x1 = 0.0499	2.901	2.558	2.239
x1 = 0.1	2.603	2.314	2.038
x1 = 0.1511	2.336	2.092	1.85
x1 = 0.2007	2.107	1.899	1.687
x1 = 0.2489	1.91	1.731	1.545
x1 = 0.2999	1.725	1.573	1.412
x1 = 0.3421	1.589	1.455	1.312
x1 = 0.4018	1.417	1.305	1.186
x1 = 0.45	1.296	1.198	1.094
x1 = 0.5002	1.183	1.097	1.007
x1 = 0.5521	1.079	1.004	0.925
x1 = 0.5998	0.993	0.926	0.857
x1 = 0.6538	0.906	0.847	0.786
x1 = 0.6987	0.84	0.788	0.734
x1 = 0.7501	0.773	0.727	0.679
x1 = 0.8	0.714	0.673	0.632
x1 = 0.8492	0.661	0.626	0.59
x1 = 0.8997	0.612	0.581	0.55
x1 = 0.9493	0.57	0.541	0.514
